Test results from the NIST ThermoML archive (doi:10.1021/je049787p).

Settings: 101.3 kPa, Liquid; for electrical conductivity: Alternating current cell with electrodes

C=CCn1cc[n+](C)c1.[Cl-] [1-allyl-3-methylimidazolium chloride]
Settings	electrical conductivity [S/m]	viscosity [mPa·s]
293.15 K	0.00382	66
303.15 K	0.0044	44.7
313.15 K	0.00501	25.3
323.15 K	0.00562	20.6
333.15 K	0.00624	16.2
